Experimental data from patent publication US6583132B1, “Oxidant scavengers” (Duke University, priority 1993, dated 2003).

What was measured:
[1] = system: aconitase; assay: Aconitase activity in cortical cell lysates; assay type: cell-based, rat; conditions: 200 μM MnTBAP
Procedure: Tissue culture: Mixed neuronal and glial cultures were prepared from embryonic day-18 rat cerebral cortices (Sprague-Dawley, Zivic Miller). Briefly, the cerebral cortices were dissected and enzymatically dissociated by incubation in Ca^++-, Mg^++-free Hank's balanced salt solution (HBSS) supplemented with 10 mM HEPES and 0.25% trypsin for 20 min. at 37° C. The tissue was rinsed and dispersed into single cell suspension by gentle passage through a fire polished Pasteur pipette. The cell suspension was centrifuged and resuspended in Minimum Essential Media (MEM), containing Earle's salts supplemented with 3 g/L glucose, 5% horse serum and 5% fetal bovine serum (growth media). The cells were plated in poly-D-lysine-coated multi-well plates: 12-well plates for aconitase measurement, and 24 well plates for toxicity experiments. Cells were maintained at 37° C. in a humidified incubator with 5% CO2/95% air in growth media. Media was not replaced so as to reduce glial overgrowth and neuronal loss. Mature cells (14-17 days in vitro) were used for all experiments.
Cell treatment: The growth media was replaced with MEM supplemented with 25 mM glucose (MEM-g). For both neurotoxicity studies and aconitase measurement, cells were incubated in the designated treatment for the indicated length of time at 37° C. Unless otherwise specified, antagonists or SOD-mimetics were added 15 min. prior to agonists. For measurement of neurotoxicity, cells were incubated with treatments for 18 hr at 37° C. in MEM-g. To access the ability of antagonists to inhibit acute NMDA toxicity or rescue cells from an ongoing NMDA insult, an alternate paradigm of NMDA treatment was used in addition to the one describe above. In this paradigm, growth media was replaced with HBSS^+ (Ca^++-, Mg^++-free Hank's Balanced Salt Solution supplemented with 2 mM CaCl2, 1 mM NaHCO3, 10 mM HEPES and 5 μM glycine), cells were treated with vehicle or 100 μM NMDA for 15 min. after which HBSS^+ was replaced with MEM-g and cells were returned to the incubator for 18 additional hrs. Antagonsists or SOD-mimetics were added to the cells 15 min. before NMDA exposure or 15, 30 or 60 min. following final media replacement. For determination of Ca^++-dependence, cells were incubated in HBSS^+ with no added Ca^++. When kainate (KA) was used as an agonist, 100 μM D-APV was routinely included to block secondary NMDA receptor activation. Catalase (100 U/ml) was always included when xanthine plus xanthine oxidase (X+XO) was used as a treatment to rule out the contribution of hydrogen peroxide.
Aconitase measurement: For the measurement of aconitase, following treatment with agents, media was removed and cells lysed in ice-cold 50 mM, Tris/HCl, pH 7.4 containing 0.6 mM MnCl2, 1 mM L-cysteine, 1 mM citrate and 0.5% Triton-X 100. The aconitase activity of cell lysates was measured spectrophotometrically by monitoring the formation of cis-aconitate from isocitrate at 240 nm in 50 mM Tris/HCl, pH 7.4, containing 0.6 mM MnCl2 and 20 mM isocitrate at 25° C. (Kreb and Holzach, Biochem. J. 52:527 (1952); Gardner and Fridovich, J. Biol. Chem. 267:8757 (1992)). […] Aconitase activity in cortical cell lysates was inhibited by 0.1 mM potassium ferricyanide or by boiling of sample.

[2] = system: Calf pulmonary endothelial cell (CPA-47) line; assay: Glucose oxidase hydrogen peroxide injury of CPA-47, Cr^51 release; assay type: cell-based; conditions: glucose oxidase 100 Mu/ml, 4 hours; 1 hour pretreatment
Procedure: (§1) Calf pulmonary endothelial cell (CPA-47) line was grown to near confluence in 12-well plates with F-12K medium containing 10% fetal calf serum. CPA-47 cells were loaded with Cr^51 as previously described by Simon et al J. Clin. Invest. 78:1375 (1986) in high glucose minimum essential medium (DMEM). Cells were pretreated with MnTBAP (100 μM) for 1 hour and then exposed to various concentrations of hydrogen peroxide generator, glucose oxidase, for 4 hours. Cell injury was then quantitated as the specific Cr^51 release from CPA-47 cells which has been adjusted for spontaneous Cr51 release.
as §1, with “(J.” for “J.”, “(1986))” for “(1986)”, “various concentrations of either: (A) MnTBAP; (B) MnTMPyP; (C) ZnTBAP; or (D) CuZnSOD” for “MnTBAP (100 μM)”, “the” for “various concentrations of”, “oxidase (100 Mu/ml),” for “oxidase,”, “Cr^51” for “Cr51”

[3] = system: Cortical cells; assay: Cell death of cortical cells by EthD-1 staining; assay type: cell-based, rat; conditions: concentration-response curves
Procedure: Tissue culture: Mixed neuronal and glial cultures were prepared from embryonic day-18 rat cerebral cortices (Sprague-Dawley, Zivic Miller). Briefly, the cerebral cortices were dissected and enzymatically dissociated by incubation in Ca^++-, Mg^++-free Hank's balanced salt solution (HBSS) supplemented with 10 mM HEPES and 0.25% trypsin for 20 min. at 37° C. The tissue was rinsed and dispersed into single cell suspension by gentle passage through a fire polished Pasteur pipette. The cell suspension was centrifuged and resuspended in Minimum Essential Media (MEM), containing Earle's salts supplemented with 3 g/L glucose, 5% horse serum and 5% fetal bovine serum (growth media). […]
Neurotoxicity studies: Neurotoxicity was determined by the measurement of LDH released in the supernatant media as previously described (Patel et al, Toxicol. Appl. Pharmacol. 115:124 (1991) and Neurotoxicology 14:35 (1992)). LDH was measured by the method of Vassault, Lactate dehydrogenase. […] Briefly, the cells were washed with HBSS, loaded with 20 μM EthD-1 for 30 min,. rinsed and viewed through fluorescence optics. The number of dead cells labeled with EthD-1 were counted in 4-6 randomly selected fields, the numbers averaged to give an estimate of cell death and the experiment was repeated 3 times.

[4] = system: Rat pulmonary epithelial cell cultures (L2); assay: Paraquat-induced injury of L2 cells, LDH release; assay type: cell-based; conditions: 100 μM; Paraquat 2.5 mM, 48 hours
[5] = Peroxynitrite-induced oxidation of dihydrorhodamine 123; assay type: biochemical; conditions: peroxynitrite 5 μM; 10 μM dihydrorhodamine 123; 10 min, 22° C.; read-out: concentration giving 50% inhibition of oxidation of dihydrorhodamine 123 to rhodamine 123
Procedure: Measurement of peroxynitrite-induced oxidation of dihydrorhodamine 123: The peroxynitrite-dependent oxidation of dihydrorhodamine 123 to rhodamine 123, was measured based on the principles of the method described by Kooy et al, Free Radical Biol. Med. 16:149 (1994). Briefly, peroxynitrite at 5 μM was added into phosphate-buffered saline containing 10 μM dihydrorhodamine 123, in the absence of presence of MnTBAP (3-100 μM). After a 10 min incubation at 22° C., the fluorescence of rhodamine 123 was measured using a Perkin-Elmer fluorimeter (Model LS50B: Perkin-Elmer, Norwalk, Conn.) at an excitation wavelength of 500 mn, emission wavelength of 536 nm (slit widths 2.5 and 3.0 nm, respectively).

Mn(III) tetrakis (4-benzoic acid)porphyrin [MnTBAP]
PQ^++-, NMDA- and KA-mediated decreases of aconitase activity [1]: markedly inhibited | hydrogen peroxide-induced endothelial cell injury [2]: reduction | neuroprotective effects against PQ^++, NMDA and KA toxicities [3]: markedly increased neuroprotective effects in comparison to ZnTBAP | paraquat-induced LDH release [4]: decrease paraquat-induced LDH release | IC50 [5]: 30 µM
